Read-outs that look alike come from different tables or passages of the source.
Columns and labels:
lung cancer (H-460) = experiment: MTT cytotoxicity assay, H-460; format: cell-based; details: Homo sapiens, NCI-H460; H-460, MTT, 72 h; read-out: Antiproliferative Activity IC50 ± SEM, H-460
[1] = Cell viability % (MTT, normal cell line); details: human, MRC5 normal fetal lung fibroblast cells
[2] = test system: human malignant melanoma (A375); experiment: MTT cytotoxicity assay, A375; format: cell-based; details: Homo sapiens, A-375, 72 h, read-out: Antiproliferative Activity IC50 ± SEM, A375
[3] = test system: pancreatic ductal cancer (Panc-1); experiment: MTT cytotoxicity assay, Panc-1; format: cell-based; details: Homo sapiens; Panc-1, MTT, 72 h; read-out: Antiproliferative Activity IC50 ± SEM, Panc-1
[4] = test system: human colon cancer (HT-29); experiment: MTT cytotoxicity assay, HT-29; format: cell-based; details: Homo sapiens; HT-29, MTT, 72 h; read-out: Antiproliferative Activity IC50 ± SEM, HT-29
[5] = test system: pancreatic cancer (PaCa-2); experiment: MTT cytotoxicity assay, PaCa-2; format: cell-based; details: PaCa-2, MTT, 72 h; read-out: Antiproliferative Activity IC50 ± SEM, PaCa-2
Sheep-derived COX-1 = biological target: T1, Sheep-derived COX-1 (Ovis aries, UniProt P05979); experiment: Cyclooxygenase assay (PGE2 quantification), COX-1
T1 sequence (P05979 25-600): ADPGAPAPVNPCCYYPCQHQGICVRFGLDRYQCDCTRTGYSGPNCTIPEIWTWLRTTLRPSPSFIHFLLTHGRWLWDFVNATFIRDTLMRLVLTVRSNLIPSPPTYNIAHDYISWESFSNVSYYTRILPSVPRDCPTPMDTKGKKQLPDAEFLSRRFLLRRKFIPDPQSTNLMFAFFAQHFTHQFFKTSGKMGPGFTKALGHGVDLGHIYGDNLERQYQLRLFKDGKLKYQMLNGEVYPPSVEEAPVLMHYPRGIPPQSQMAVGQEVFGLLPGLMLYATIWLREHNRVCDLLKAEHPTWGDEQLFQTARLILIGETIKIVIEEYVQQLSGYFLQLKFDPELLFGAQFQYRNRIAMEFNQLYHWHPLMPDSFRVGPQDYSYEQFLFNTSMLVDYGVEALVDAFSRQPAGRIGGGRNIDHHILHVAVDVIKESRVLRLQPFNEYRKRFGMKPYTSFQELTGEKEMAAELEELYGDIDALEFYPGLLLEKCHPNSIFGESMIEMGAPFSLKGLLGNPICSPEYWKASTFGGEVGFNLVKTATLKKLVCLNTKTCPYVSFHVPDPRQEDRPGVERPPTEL

[6] = biological target: T2, human recombinant sPLA2-V (Homo sapiens, UniProt P39877); experiment: Secretory PLA2-V activity assay (Ellman's photometric method)
T2 sequence (P39877 21-138): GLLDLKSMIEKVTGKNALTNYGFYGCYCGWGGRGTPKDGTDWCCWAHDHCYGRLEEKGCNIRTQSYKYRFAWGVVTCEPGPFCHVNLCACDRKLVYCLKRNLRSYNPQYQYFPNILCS

human recombinant COX-2 = biological target: T3, human recombinant COX-2 (Homo sapiens, UniProt P35354); experiment: Cyclooxygenase assay (PGE2 quantification), COX-2; format: biochemical; details: mean ± SD; n = 3
T3 construct: purchased Cayman Chemicals
T3 sequence (P35354 18-604): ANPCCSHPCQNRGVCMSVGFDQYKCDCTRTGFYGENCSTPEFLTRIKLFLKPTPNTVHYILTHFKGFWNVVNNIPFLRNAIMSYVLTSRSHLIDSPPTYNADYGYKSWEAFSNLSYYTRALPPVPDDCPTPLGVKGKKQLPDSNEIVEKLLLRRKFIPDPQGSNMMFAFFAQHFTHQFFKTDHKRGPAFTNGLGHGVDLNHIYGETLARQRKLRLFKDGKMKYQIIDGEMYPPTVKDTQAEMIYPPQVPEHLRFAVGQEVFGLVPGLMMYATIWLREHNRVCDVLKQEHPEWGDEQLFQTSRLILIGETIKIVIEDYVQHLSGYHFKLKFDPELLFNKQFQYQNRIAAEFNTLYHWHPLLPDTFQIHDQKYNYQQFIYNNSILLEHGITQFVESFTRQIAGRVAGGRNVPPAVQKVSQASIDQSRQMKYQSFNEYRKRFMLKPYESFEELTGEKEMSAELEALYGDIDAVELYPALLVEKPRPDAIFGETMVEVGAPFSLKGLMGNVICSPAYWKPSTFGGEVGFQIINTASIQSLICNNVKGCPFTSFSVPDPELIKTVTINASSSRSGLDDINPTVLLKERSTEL

EGFR = biological target: T4, EGFR (Homo sapiens, UniProt P00533); experiment: EGFR kinase inhibition assay (EGFR Kinase Assay Kit); format: biochemical; details: triplicates; read-out: EGFR Inhibition IC50 ± SEM
T4 construct: purchased PBS Bioscience (so in the source)
T4 sequence (P00533 25-1210): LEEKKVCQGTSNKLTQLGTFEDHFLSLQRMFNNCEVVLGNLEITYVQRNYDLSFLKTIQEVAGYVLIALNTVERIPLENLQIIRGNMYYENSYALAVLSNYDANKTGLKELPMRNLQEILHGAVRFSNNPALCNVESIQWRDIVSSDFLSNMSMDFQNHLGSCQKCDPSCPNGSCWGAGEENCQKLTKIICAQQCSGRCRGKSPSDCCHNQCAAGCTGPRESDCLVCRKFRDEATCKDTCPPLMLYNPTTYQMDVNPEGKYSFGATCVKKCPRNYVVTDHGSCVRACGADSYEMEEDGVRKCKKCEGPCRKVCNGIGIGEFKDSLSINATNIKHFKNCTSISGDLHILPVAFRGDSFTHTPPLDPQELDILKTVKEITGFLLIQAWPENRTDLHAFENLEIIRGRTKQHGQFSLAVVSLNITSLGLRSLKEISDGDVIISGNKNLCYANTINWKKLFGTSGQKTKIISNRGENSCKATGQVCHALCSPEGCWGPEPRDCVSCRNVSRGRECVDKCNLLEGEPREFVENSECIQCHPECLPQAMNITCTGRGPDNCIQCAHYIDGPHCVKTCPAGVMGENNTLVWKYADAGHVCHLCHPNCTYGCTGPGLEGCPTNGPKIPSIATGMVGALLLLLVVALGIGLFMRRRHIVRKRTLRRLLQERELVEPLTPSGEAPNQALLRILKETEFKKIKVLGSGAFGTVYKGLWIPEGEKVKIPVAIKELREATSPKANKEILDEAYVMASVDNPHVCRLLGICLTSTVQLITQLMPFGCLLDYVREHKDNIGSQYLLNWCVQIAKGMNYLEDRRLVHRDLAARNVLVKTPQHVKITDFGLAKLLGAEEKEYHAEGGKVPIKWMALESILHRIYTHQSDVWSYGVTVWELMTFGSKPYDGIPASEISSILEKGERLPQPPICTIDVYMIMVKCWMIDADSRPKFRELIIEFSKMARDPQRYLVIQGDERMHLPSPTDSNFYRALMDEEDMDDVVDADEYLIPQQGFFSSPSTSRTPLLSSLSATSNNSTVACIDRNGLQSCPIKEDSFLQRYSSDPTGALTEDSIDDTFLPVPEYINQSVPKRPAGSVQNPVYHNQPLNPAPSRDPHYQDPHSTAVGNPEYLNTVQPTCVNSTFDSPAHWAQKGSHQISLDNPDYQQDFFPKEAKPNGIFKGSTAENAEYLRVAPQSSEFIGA

IL-6 = experiment: ELISA, LPS-induced IL-6 release in RAW264.7 macrophages; format: cell-based, mouse; details: for inhibition at 10 µM: Mus musculus, RAW264.7, RAW 264.7, compound 10 µM for 2 h, then LPS 0.5 µg/mL for 22 h; for Relative Amount of LPS (IL-6): RAW 264.7, compound 10 µM, IL-6 relative to LPS control = 100
TNF-α = experiment: ELISA, LPS-induced TNF-α release in RAW264.7 macrophages; format: cell-based, mouse; details: for inhibition at 10 µM: Mus musculus, RAW264.7, RAW 264.7, compound 10 µM for 2 h, then LPS 0.5 µg/mL for 22 h; for Relative Amount of LPS (TNF-α): RAW 264.7, compound 10 µM, TNF-α relative to LPS control = 100

| Compound | IC50 (lung cancer (H-460)) [µM] | viability at 72 h [1] [%] | IC50 [2] [µM] | IC50 [3] [µM] | IC50 [4] [µM] | IC50 [5] [µM] | IC50 (Sheep-derived COX-1) [µM] | IC50 [6] [µM] | IC50 (human recombinant COX-2) [µM] | IC50 (EGFR) [µM] | inhibition at 10 µM (IL-6) [%] | Relative Amount of LPS (IL-6) (IL-6) | inhibition at 10 µM (TNF-α) [%] | Relative Amount of LPS (TNF-α) (TNF-α) | IC50 ([6]; read-out: sPLA2-V IC50, mean ± SD, n = 3) [µM] |
| --- | --- | --- | --- | --- | --- | --- | --- | --- | --- | --- | --- | --- | --- | --- | --- |
| CC(=O)c1cccc(/N=N/c2ccc(O)cc2)c1 [Compound A1] | 7.4 ± 2.2 | 80.3 ± 1.6 | 9.3 ± 1.9 | 9.1 ± 1.8 | 8.3 ± 2.1 | 8.6 ± 1.2 |  |  |  |  |  |  |  |  |  |
| CC(=O)c1cccc(/N=N/c2ccc(O)cc2O)c1 [Compound A2, (E)-1-(3-((2,4-Dihydroxyphenyl)daizenyl)phenyl)ethan-1-one] | 5.9 ± 2.4 | 90.4 ± 1.9 | 8.4 ± 2.1 | 9.6 ± 2 | 9.2 ± 2.5 | 9.6 ± 1.5 | 22.2 ± 2.45 | 7.25 ± 1.24 | 27.9 ± 1.65 |  |  |  |  |  |  |
| CC(=O)c1cccc(/N=N/c2ccc(O)c(C(=O)O)c2)c1 [Compound A3, (E)-5-((3-Acetylphenyl)diazenyl)-2-hydroxybenzoic acid] | 1.8 ± 0.4 | 79.6 ± 4.5 | 4 ± 1.5 | 2.2 ± 0.9 | 1.8 ± 0.5 | 2.4 ± 1.5 | 0.21 ± 0.07 | 2.14 ± 0.94 | 2.4 ± 0.8 | 4.3 ± 0.7 | 72 | 28 | 79 | 21 |  |
| CC(=O)c1cccc(/N=N/c2ccc(O)c3ccccc23)c1 [Compound A4, (E)-1-(3-((4-Hydroxynaphthalen-1-yl)diazenyl)phenyl)ethan-1-one] | 3.4 ± 1 | 87.4 ± 1.7 | 4.4 ± 1.9 | 2 ± 0.4 | 2.7 ± 0.6 | 2 ± 0.6 | 11.1 ± 1.05 | 14.1 ± 1.52 | 16.8 ± 2.43 | 3.2 ± 0.8 | 46 | 54 | 49 | 51 |  |
| CC(=O)c1cccc(/N=N/c2c(O)ccc3ccccc23)c1 [Compound A5, (E)-1-(3-((2-Hydroxynaphthalen-1-yl)diazenyl)phenyl)ethan-1-one] | 9.2 ± 1.2 | 88.2 ± 1.2 | 9.6 ± 2.4 | 9.6 ± 1.8 | 11.9 ± 2.5 | 10.5 ± 1.9 | 9.23 ± 1.64 | 4.24 ± 1.16 | 14.2 ± 1.79 |  |  |  |  |  |  |
| CC(=O)c1cccc(/N=N/c2ccc(O)c3ncccc23)c1 [Compound A6, (E)-1-(3-((8-Hydroxyquinolin-5-yl)diazenyl)phenyl)ethan-1-one] | 8.8 ± 2.3 | 82.5 ± 1.7 | 9.5 ± 1.5 | 6.9 ± 2.1 | 7.6 ± 1.4 | 9.5 ± 1.9 | 4.85 ± 1.2 | 7.42 ± 1.41 | 5.21 ± 1.2 |  |  |  |  |  |  |
| O=C(/C=C/c1ccc(F)cc1)c1cccc(/N=N/c2ccc(O)cc2)c1 [Compound C7, (E)-3-(4-Fluorophenyl)-1-(3-((E)-(4-hydroxyphenyl)diazenyl)phenyl) prop-2-en-1-one] | 5 ± 1.4 | 82.6 ± 1.2 | 5.3 ± 1.5 | 4.8 ± 1.6 | 4.5 ± 1.7 | 2.9 ± 1.7 | 7.52 ± 1.42 | 24.7 ± 1.59 | 29.4 ± 1.73 | 5.8 ± 1.1 |  |  |  |  |  |
| O=C(/C=C/c1ccc(F)cc1)c1cccc(/N=N/c2ccc(O)cc2O)c1 [Compound C8, (E)-1-(3-((E)-(2,4-Dihydroxyphenyl)diazenyl)phenyl)-3-(4-fluorophenyl) prop-2-en-1-one] | 2.2 ± 0.5 | 83.5 ± 1.2 | 2.6 ± 0.5 | 1.9 ± 0.7 | 2.5 ± 7 | 2.8 ± 0.6 | 5.14 ± 1.27 | 14.2 ± 1.32 | 32.1 ± 1.4 | 4.9 ± 0.9 |  |  |  |  |  |
| O=C(/C=C/c1ccc(F)cc1)c1cccc(/N=N\c2ccc(O)c(C(=O)O)c2)c1 [Compound C9, 5. -((Z)-(3-((E)-3-(4-Fluorophenyl)acryloyl)phenyl)diazenyl)-2-hydroxybenzoic acid] | 1.2 ± 0.2 | 90.2 ± 4.1 | 3.2 ± 1.1 | 1.8 ± 0.4 | 1.2 ± 0.3 | 2.1 ± 0.3 | 8.57 ± 1.89 | 2.74 ± 1.24 | 1.27 ± 0.3 | 0.8 ± 0.3 | 77 | 23 | 74 | 26 |  |
| CN(C)c1ccc(/C=C/C(=O)c2cccc(/N=N/c3ccc(O)cc3)c2)cc1 [Compound C13, (E)-3-(4-(Dimethylamino)phenyl)-1-(3-((E)-(4-hydroxyphenyl)diazenyl)phenyl)prop-2-en-1-one] | 6.6 ± 1.2 | 90.6 ± 1.7 | 8.4 ± 1.5 | 8.7 ± 1.4 | 7.8 ± 1.8 | 7.4 ± 1.7 | 18.3 ± 1.27 | 5.06 ± 1.2 | 19.2 ± 1.52 |  |  |  |  |  |  |
| CN(C)c1ccc(/C=C/C(=O)c2cccc(/N=N/c3ccc(O)cc3O)c2)cc1 [Compound C14, (E)-1-(3-((E)-(2,4-Dihydroxyphenyl)diazenyl)phenyl)-3-(4-(dimethylamino)phenyl) prop-2-en-1-one] | 5.2 ± 1.3 | 89.4 ± 2.1 | 4.9 ± 1.6 | 4.6 ± 1.7 | 6.5 ± 1.4 | 5.9 ± 1.9 | 11.5 ± 1.2 | 7.04 ± 1.29 | 5.14 ± 1.1 |  |  |  |  |  |  |
| CN(C)c1ccc(/C=C/C(=O)c2cccc(/N=N\c3c(O)ccc4ccccc34)c2)cc1 [Compound C17, (E)-3-(4-(dimethylamino)phenyl)-1-(3-((Z)-(2-hydroxynaphthalen-1-yl)diazenyl)phenyl) prop-2-en-1-one] | 5.6 ± 2.1 | 87.2 ± 1.4 | 8.8 ± 2.5 | 2.5 ± 1.2 | 9.2 ± 1.6 | 7.5 ± 1.9 | 49.1 ± 2.69 | 9.45 ± 1.67 | 5.29 ± 1.1 |  |  |  |  |  |  |
| CN(C)c1ccc(/C=C/C(=O)c2cccc(/N=N\c3ccc(O)c4ncccc34)c2)cc1 [Compound C18, (E)-3-(4-(dimethylamino)phenyl)-1-(3-((Z)-(8-hydroxyquinolin-5-yl)diazenyl)phenyl) prop-2-en-1-one] | 6.3 ± 1.4 | 88.4 ± 2.9 | 8.8 ± 2.5 | 6.4 ± 0.4 | 6.7 ± 0.6 | 6.4 ± 1.5 | 40.2 ± 3.42 | 8.29 ± 0.88 | 3.2 ± 0.6 |  | 73 |  | 71 | 29 |  |
| C[C@@H]1C[C@H]2[C@@H]3CCC4=CC(=O)C=C[C@]4(C)[C@@]3(F)[C@@H](O)C[C@]2(C)[C@@]1(O)C(=O)CO [Dexamethasone, reference compound] |  |  |  |  |  |  |  |  |  |  |  |  |  |  | 0.57 ± 0.06 |
| C#Cc1cccc(Nc2ncnc3cc(OCCOC)c(OCCOC)cc23)c1 [Erlotinib, reference compound] | 0.04 ± 0.02 |  | 4.14 ± 1.2 | 0.05 ± 0.02 | 0.07 ± 0.04 | 0.06 ± 0.04 |  |  |  |  |  |  |  |  |  |
